Reference: ChEMBL document CHEMBL1201862, “PubChem BioAssay data set” (2004)
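Exposure lasted 48 hours, with cells grown in 96-well plates and compounds tested at five concentrations. GI50 = concentration required for 50% inhibition of growth.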 Activity calls are given as the source filed them. No stated cut-off is given here; in the data, active = GI50 up to about 1.1 µM and inactive = higher.

Columns and labels:
Assay in all cases: NCI tumour cell line growth inhibition, 48 h
786-0 = tested on: 786-0
A498 = tested on: A498
A549 = tested on: A549
ACHN = tested on: ACHN
BT-549 = tested on: BT-549
CAKI-1 = tested on: CAKI-1
CCRF-CEM = tested on: CCRF-CEM
COLO 205 = tested on: COLO 205
DU-145 = tested on: DU-145
EKVX = tested on: EKVX
HCC 2998 = tested on: HCC 2998
HCT-116 = tested on: HCT-116
HCT-15 = tested on: HCT-15
HL-60 = tested on: HL-60
HOP-62 = tested on: HOP-62
HT-29 = tested on: HT-29
Hs-578T = tested on: Hs-578T
IGROV-1 = tested on: IGROV-1
K562 = tested on: K562
KM12 = tested on: KM12
LOX IMVI = tested on: LOX IMVI
M14 = tested on: M14
MCF7 = tested on: MCF7
MDA-MB-231 = tested on: MDA-MB-231
MDA-MB-435 = tested on: MDA-MB-435
MDA-N = tested on: MDA-N
MOLT-4 = tested on: MOLT-4
Malme-3M = tested on: Malme-3M
NCI-H23 = tested on: NCI-H23
NCI-H460 = tested on: NCI-H460
NCI-H522 = tested on: NCI-H522
NCI/ADR-RES = tested on: NCI/ADR-RES
OVCAR-3 = tested on: OVCAR-3
OVCAR-4 = tested on: OVCAR-4
OVCAR-5 = tested on: OVCAR-5
OVCAR-8 = tested on: OVCAR-8
PC-3 = tested on: PC-3
RPMI-8226 = tested on: RPMI-8226
RXF 393 = tested on: RXF 393
SF-268 = tested on: SF-268
SF-295 = tested on: SF-295
SF-539 = tested on: SF-539
SK-MEL-28 = tested on: SK-MEL-28
SK-MEL-2 = tested on: SK-MEL-2
SK-MEL-5 = tested on: SK-MEL-5
SK-OV-3 = tested on: SK-OV-3
SN12C = tested on: SN12C
SNB-19 = tested on: SNB-19
SNB-75 = tested on: SNB-75
SR = tested on: SR
SW-620 = tested on: SW-620
T47D = tested on: T47D
TK-10 = tested on: TK-10
U-251 = tested on: U-251
UACC-257 = tested on: UACC-257
UACC-62 = tested on: UACC-62
UO-31 = tested on: UO-31
HOP-92 = tested on: HOP-92
NCI-H226 = tested on: NCI-H226

## CCOC(=O)CC1Nc2ccccc2C12CCc1c([nH]c3ccccc13)C2C(=O)OCC (configuration not stated)
786-0
  GI50: 47.5 µM (inactive)
A498
  GI50: 9.42 µM (inactive)
A549
  GI50: 14.3 µM (inactive)
ACHN
  GI50: 28.6 µM (inactive)
BT-549
  GI50: > 100 µM (inactive)
CAKI-1
  GI50: 6.58 µM (inactive)
CCRF-CEM
  GI50: 0.359 µM (active)
COLO 205
  GI50: 5.12 µM (inactive)
DU-145
  GI50: > 100 µM (inactive)
EKVX
  GI50: 16.2 µM (inactive)
HCC 2998
  GI50: 84.9 µM (inactive)
HCT-116
  GI50: 12.9 µM (inactive)
HCT-15
  GI50: 13.1 µM
HL-60
  GI50: 14.7 µM (inactive)
HOP-62
  GI50: > 100 µM (inactive)
HT-29
  GI50: 11.6 µM (inactive)
Hs-578T
  GI50: 8.18 µM (inactive)
IGROV-1
  GI50: 6.92 µM (inactive)
K562
  GI50: 34 µM (inactive)
KM12
  GI50: 14.8 µM (inactive)
LOX IMVI
  GI50: 26.5 µM (inactive)
M14
  GI50: 30.5 µM (inactive)
MCF7
  GI50: 13.1 µM (inactive)
MDA-MB-231
  GI50: 22.9 µM (inactive)
MDA-MB-435
  GI50: 4.79 µM (inactive)
MDA-N
  GI50: 4.65 µM (inactive)
MOLT-4
  GI50: 6.1 µM (inactive)
Malme-3M
  GI50: 10.5 µM (inactive)
NCI-H23
  GI50: 51.2 µM (inactive)
NCI-H460
  GI50: 14.2 µM (inactive)
NCI-H522
  GI50: 7.13 µM (inactive)
NCI/ADR-RES
  GI50: 12.6 µM (inactive)
OVCAR-3
  GI50: 22.2 µM (inactive)
OVCAR-4
  GI50: 12.3 µM (inactive)
OVCAR-5
  GI50: > 100 µM (inactive)
OVCAR-8
  GI50: > 100 µM (inactive)
PC-3
  GI50: 53.2 µM (inactive)
RPMI-8226
  GI50: 2.77 µM (inactive)
RXF 393
  GI50: 5.79 µM (inactive)
SF-268
  GI50: 51.4 µM (inactive)
SF-295
  GI50: 3.61 µM (inactive)
SF-539
  GI50: 88.1 µM (inactive)
SK-MEL-28
  GI50: 35.1 µM (inactive)
SK-MEL-2
  GI50: 27 µM (inactive)
SK-MEL-5
  GI50: 14.8 µM (inactive)
SK-OV-3
  GI50: 6.4 µM (inactive)
SN12C
  GI50: 24.7 µM (inactive)
SNB-19
  GI50: > 100 µM (inactive)
SNB-75
  GI50: 0.0728 µM (active)
SR
  GI50: 17.3 µM (inactive)
SW-620
  GI50: 6.87 µM (inactive)
T47D
  GI50: 10.4 µM (inactive)
TK-10
  GI50: 32.5 µM (inactive)
U-251
  GI50: 48.5 µM (inactive)
UACC-257
  GI50: 38 µM (inactive)
UACC-62
  GI50: 9.62 µM (inactive)
UO-31
  GI50: 36.1 µM (inactive)

## CC(=O)N1N=C(c2c(O)ccc3ccccc23)CC1C(=O)c1ccco1 (configuration not stated)
786-0
  GI50: 30.8 µM (inactive)
A498
  GI50: 41.5 µM (inactive)
A549
  GI50: 28.2 µM (inactive)
ACHN
  GI50: 33 µM (inactive)
BT-549
  GI50: 18.4 µM (inactive)
CAKI-1
  GI50: 42.6 µM (inactive)
CCRF-CEM
  GI50: 14.9 µM (inactive)
COLO 205
  GI50: 24.7 µM (inactive)
DU-145
  GI50: 47.4 µM (inactive)
HCC 2998
  GI50: 50.1 µM (inactive)
HCT-116
  GI50: 20.4 µM (inactive)
HCT-15
  GI50: 37.9 µM
HOP-62
  GI50: 29.8 µM (inactive)
HOP-92
  GI50: 52.7 µM (inactive)
HT-29
  GI50: 33.8 µM (inactive)
Hs-578T
  GI50: 34.5 µM (inactive)
IGROV-1
  GI50: 27.1 µM (inactive)
K562
  GI50: 16.9 µM (inactive)
KM12
  GI50: 28.1 µM (inactive)
M14
  GI50: 22.4 µM (inactive)
MCF7
  GI50: 14.5 µM (inactive)
MDA-MB-231
  GI50: 18.4 µM (inactive)
MDA-MB-435
  GI50: 28.5 µM (inactive)
MDA-N
  GI50: 23.9 µM (inactive)
MOLT-4
  GI50: 13.2 µM (inactive)
Malme-3M
  GI50: 30.5 µM (inactive)
NCI-H226
  GI50: 77.1 µM (inactive)
NCI-H23
  GI50: 22.2 µM (inactive)
NCI-H460
  GI50: 34.5 µM (inactive)
NCI-H522
  GI50: 28.2 µM (inactive)
NCI/ADR-RES
  GI50: 28.2 µM (inactive)
OVCAR-3
  GI50: 17.7 µM (inactive)
OVCAR-4
  GI50: 36 µM (inactive)
OVCAR-5
  GI50: 55 µM (inactive)
OVCAR-8
  GI50: 39 µM (inactive)
PC-3
  GI50: 23 µM (inactive)
RPMI-8226
  GI50: 14 µM (inactive)
RXF 393
  GI50: 25.1 µM (inactive)
SF-268
  GI50: 31.1 µM (inactive)
SF-295
  GI50: 35.2 µM (inactive)
SF-539
  GI50: 21.1 µM (inactive)
SK-MEL-28
  GI50: 30.9 µM (inactive)
SK-MEL-2
  GI50: 16.6 µM (inactive)
SK-MEL-5
  GI50: 22.8 µM (inactive)
SK-OV-3
  GI50: 48.6 µM (inactive)
SN12C
  GI50: 32.4 µM (inactive)
SNB-75
  GI50: 17.9 µM (inactive)
SR
  GI50: 13.6 µM (inactive)
SW-620
  GI50: 33.7 µM (inactive)
T47D
  GI50: 39.8 µM (inactive)
TK-10
  GI50: 60.3 µM (inactive)
U-251
  GI50: 34.3 µM (inactive)
UACC-257
  GI50: 31.6 µM (inactive)
UACC-62
  GI50: 16.4 µM (inactive)
UO-31
  GI50: 21.6 µM (inactive)
